Assay results as given in patent EP0414533A1, “Use of iodopropargyl esters of alpha-amino acid derivatives as antimicrobial agents” (ROHM AND HAAS COMPANY, priority 1989, dated 1991).
Values after ≈ are worked out from the molar mass of the structure shown. Like-named read-outs stand apart in the source and are kept apart here.

Legend:
ALT = assay: In-vitro plant fungicide test; format: cell-based; details: Table IVb, read-out: % Control at (ppm) indicated ALT
8 FUNGI = assay: Microbicides secondary test against 8 fungi on Mycophile Agar at pH 5.0 (Table VI); format: cell-based; parameters: key: 1= no growth; 0= growth of the indicated fungi at dose indicated in ppm; details: for ANIG growth: Aspergillus niger; for APUL growth: Aureobasidium pullulans; for CGLO growth: Chaetomium globosum; for CRES growth: Cladosporium resinae; for GTRA growth: Gloeophyllum trabeum; for PFUN growth: Penicillium funiculosum; for RRUB growth: Rhodotorula rubra; for SSER growth: Sacharomyces cerevisiae
From the text: The results of the minimum inhibitory concentration (MIC) tests of compounds of this invention are shown in Tables IIIa IIIb, IIIc, V, VI, VII, and VIII against the microorganisms shown in Table IX.

Botrytis cinerea (BOC) = assay: In-vitro plant fungicide test; format: cell-based; details: Botrytis cinerea
Septoria nodorum (SEP) = assay: In-vitro plant fungicide test; format: cell-based; details: Parastagonospora nodorum
Piricularia oryzae (PIR) = assay: microbe, parasite or virus in culture; format: cell-based
[1] = system: Xanthomonas campestris (XAN); assay: In-vitro plant fungicide test; format: cell-based; details: Xanthomonas campestris; 25 ppm; Table IVa; read-out: % Control at 25 ppm XAN
Escherichia coli (ECOL) = assay: Minimum inhibitory concentration (MIC), broth two-fold serial dilution test; details: Escherichia coli, IIIB, read-out: MIC (G-) ECOL, trypticase soy broth (complex media); Table IIIb
From the text: (§1) When the test is ready to be done, each vessel in the dilution series, except the first vessel, contains an equal volume of compound free broth. The first vessel contains twice the volume of broth with the starting concentration of test compound. One half of the broth from the first vessel is transferred to the second vessel. After being mixed, one half the resulting volume is removed from the second vessel and transferred to the third vessel. The entire cycle is repeated sufficiently to give a series of concentrations amounting to 500, 250, 125, 63, 31, 16, 8, and 4 ppm (or 100, 50, 25, 12.5, 6.2, 3.1, 1.6, and 0.8), respectively.
(§2) Each vessel is then inoculated with a cell suspension of the appropriate test organism. Bacteria are grown in broth, fungi on agar slants for a time and at a temperature appropriate to the species being tested, and algae are a mixture of green algae and blue-green bacteria grown in a nutrient media. At the end of the growth period, in the case of bacteria, the broth is vortexed to disperse the cells.
(§3) The vessels are then incubated at the appropriate temperature. After the incubation, the vessels are examined for growth/no growth.

[2] = system: MIXED COOLING TOWER ALGAE; assay: MIC test against mixed cooling tower algae; format: cell-based, green algae and blue-green bacteria; details: Table VIII
Experimental: The algae culture contains green algae and blue-green bacteria, and is obtained from a cooling tower in Spring House, Pennsylvania. The algae culture is grown in Allen's medium on a rotary shaker under flourescent room lighting. This culture is further diluted with Allen's medium and then added to the test vessel.

Aspergillus niger (ANIG) = assay: Minimum inhibitory concentration (MIC), broth two-fold serial dilution test; format: cell-based; details: Aspergillus niger, IIIB, trypticase soy broth (complex media); Table IIIb; read-out: MIC (F) ANIG
Pythium ultimum (PYU) = assay: In-vitro plant fungicide test; format: cell-based; details: Globisporangium ultimum
COL = assay: In-vitro plant fungicide test; format: cell-based; details: Table IVb, read-out: % Control at (ppm) indicated COL
[3] = system: Staphylococcus aureus (SAUR); assay: Minimum inhibitory concentration (MIC), broth two-fold serial dilution test; details: Staphylococcus aureus, IIIB, read-out: MIC (G+) SAUR, trypticase soy broth (complex media); Table IIIb
From the text: as §1, §2, §3

PSH = assay: In-vitro plant fungicide test; format: cell-based; details: Table IVb, read-out: % Control at (ppm) indicated PSH
MON = assay: In-vitro plant fungicide test; format: cell-based; details: Table IVb, read-out: % Control at (ppm) indicated MON
THREE FUNGI = assay: MIC test against three fungi in Mycophile Broth, pH 5.0, read after 8 days (Table VII); format: cell-based; details: 192 h, serial dilutions from 50 ppm, read after 8 days of incubation

**Q.** What does the source list for O=C(CN1C(=O)c2ccccc2C1=O)OCC#CI [Compound 30, N-phthaloylglycine iodopropargyl ester]?
**A.** inhibition of growth at 1.5 ppm (ALT; 1.5 ppm): 0%; inhibition of growth at 3 ppm (ALT; 3 ppm): 50%; inhibition of growth at 6 ppm (ALT; 6 ppm): 90%; inhibition of growth at 12 ppm (ALT; 12 ppm): 100%; inhibition of growth at 25 ppm (ALT; 25 ppm): 100%; inhibition of growth at 0.2 ppm (ALT; .2 ppm): 0%; inhibition of growth at 0.4 ppm (ALT; .4 ppm): 0%; inhibition of growth at 0.8 ppm (ALT; .8 ppm): 0%; ANIG growth (8 FUNGI; 0.2 PPM): 0; ANIG growth (8 FUNGI; 1.0 PPM): 0; ANIG growth (8 FUNGI; 2.5 PPM): 0; ANIG growth (8 FUNGI; 25 PPM): 1; APUL growth (8 FUNGI; 0.2 PPM): 0; APUL growth (8 FUNGI; 1.0 PPM): 0; APUL growth (8 FUNGI; 2.5 PPM): 0; APUL growth (8 FUNGI; 25 PPM): 1; CGLO growth (8 FUNGI; 0.2 PPM): 0; CGLO growth (8 FUNGI; 1.0 PPM): 0; CGLO growth (8 FUNGI; 2.5 PPM): 1; CGLO growth (8 FUNGI; 25 PPM): 1; CRES growth (8 FUNGI; 0.2 PPM): 0; CRES growth (8 FUNGI; 1.0 PPM): 0; CRES growth (8 FUNGI; 2.5 PPM): 0; CRES growth (8 FUNGI; 25 PPM): 1; GTRA growth (8 FUNGI; 0.2 PPM): 0; GTRA growth (8 FUNGI; 1.0 PPM): 0; GTRA growth (8 FUNGI; 2.5 PPM): 1; GTRA growth (8 FUNGI; 25 PPM): 1; PFUN growth (8 FUNGI; 0.2 PPM): 0; PFUN growth (8 FUNGI; 1.0 PPM): 0; PFUN growth (8 FUNGI; 2.5 PPM): 0; PFUN growth (8 FUNGI; 25 PPM): 1; RRUB growth (8 FUNGI; 0.2 PPM): 0; RRUB growth (8 FUNGI; 1.0 PPM): 0; RRUB growth (8 FUNGI; 2.5 PPM): 0; RRUB growth (8 FUNGI; 25 PPM): 1; SSER growth (8 FUNGI; 0.2 PPM): 0; SSER growth (8 FUNGI; 1.0 PPM): 0; SSER growth (8 FUNGI; 2.5 PPM): 1; SSER growth (8 FUNGI; 25 PPM): 1; inhibition of growth at 1.5 ppm (Botrytis cinerea (BOC); 1.5 ppm, Table IVb, read-out: % Control at (ppm) indicated BOC): 0%; inhibition of growth at 6 ppm (Botrytis cinerea (BOC); 6 ppm, Table IVb, read-out: % Control at (ppm) indicated BOC): 0%; inhibition of growth at 25 ppm (Botrytis cinerea (BOC); Table IVa, *=Phytotoxic, read-out: % Control at 25 ppm BOC): 100%; inhibition of growth at 25 ppm (Botrytis cinerea (BOC); Table IVb, read-out: % Control at (ppm) indicated BOC): 90%; inhibition of growth at 0.2 ppm (Botrytis cinerea (BOC); .2 ppm, Table IVb, read-out: % Control at (ppm) indicated BOC): 0%; inhibition of growth at 0.4 ppm (Botrytis cinerea (BOC); .4 ppm, Table IVb, read-out: % Control at (ppm) indicated BOC): 0%; inhibition of growth at 0.8 ppm (Botrytis cinerea (BOC); .8 ppm, Table IVb, read-out: % Control at (ppm) indicated BOC): 0%; inhibition of growth at 1.5 ppm (Septoria nodorum (SEP); 1.5 ppm, Table IVb, read-out: % Control at (ppm) indicated SEP): 100%; inhibition of growth at 6 ppm (Septoria nodorum (SEP); 6 ppm, Table IVb, read-out: % Control at (ppm) indicated SEP): 100%; inhibition of growth at 25 ppm (Septoria nodorum (SEP); Table IVa, read-out: % Control at 25 ppm SEP): 75%; inhibition of growth at 25 ppm (Septoria nodorum (SEP); Table IVb, read-out: % Control at (ppm) indicated SEP): 100%; inhibition of growth at 0.2 ppm (Septoria nodorum (SEP); .2 ppm, Table IVb, read-out: % Control at (ppm) indicated SEP): 0%; inhibition of growth at 0.4 ppm (Septoria nodorum (SEP); .4 ppm, Table IVb, read-out: % Control at (ppm) indicated SEP): 0%; inhibition of growth at 0.8 ppm (Septoria nodorum (SEP); .8 ppm, Table IVb, read-out: % Control at (ppm) indicated SEP): 100%; inhibition of growth at 1.5 ppm (Piricularia oryzae (PIR); 1.5 ppm, read-out: % Control at (ppm) indicated PIR): 100%; inhibition of growth at 6 ppm (Piricularia oryzae (PIR); 6 ppm, read-out: % Control at (ppm) indicated PIR): 100%; inhibition of growth at 25 ppm (Piricularia oryzae (PIR); 25 ppm, read-out: % Control at (ppm) indicated PIR): 100%; inhibition of growth at 0.2 ppm (Piricularia oryzae (PIR); .2 ppm, read-out: % Control at (ppm) indicated PIR): 0%; inhibition of growth at 0.4 ppm (Piricularia oryzae (PIR); .4 ppm, read-out: % Control at (ppm) indicated PIR): 0%; inhibition of growth at 0.8 ppm (Piricularia oryzae (PIR); .8 ppm, read-out: % Control at (ppm) indicated PIR): 100%; inhibition of growth at 25 ppm (Piricularia oryzae (PIR); read-out: % Control at 25 ppm PIR): 100%; inhibition of growth at 25 ppm [1]: 0%; MIC (Escherichia coli (ECOL)): > 250 µg/mL; MIC [2]: 6.2 µg/mL (≈ 16.8 µM); MIC (Aspergillus niger (ANIG)): 0.12 µg/mL (≈ 0.325 µM); inhibition of growth at 1.5 ppm (Pythium ultimum (PYU); 1.5 ppm, Table IVb, read-out: % Control at (ppm) indicated PYU): 100%; inhibition of growth at 6 ppm (Pythium ultimum (PYU); 6 ppm, Table IVb, read-out: % Control at (ppm) indicated PYU): 100%; inhibition of growth at 25 ppm (Pythium ultimum (PYU); Table IVa, read-out: % Control at 25 ppm PYU): 100%; inhibition of growth at 25 ppm (Pythium ultimum (PYU); Table IVb, read-out: % Control at (ppm) indicated PYU): 100%; inhibition of growth at 0.2 ppm (Pythium ultimum (PYU); .2 ppm, Table IVb, read-out: % Control at (ppm) indicated PYU): 100%; inhibition of growth at 0.4 ppm (Pythium ultimum (PYU); .4 ppm, Table IVb, read-out: % Control at (ppm) indicated PYU): 100%; inhibition of growth at 0.8 ppm (Pythium ultimum (PYU); .8 ppm, Table IVb, read-out: % Control at (ppm) indicated PYU): 100%; inhibition of growth at 1.5 ppm (COL; 1.5 ppm): 0%; inhibition of growth at 3 ppm (COL; 3 ppm): 0%; inhibition of growth at 6 ppm (COL; 6 ppm): 50%; inhibition of growth at 12 ppm (COL; 12 ppm): 100%; inhibition of growth at 25 ppm (COL; 25 ppm): 100%; inhibition of growth at 0.2 ppm (COL; .2 ppm): 0%; inhibition of growth at 0.4 ppm (COL; .4 ppm): 0%; inhibition of growth at 0.8 ppm (COL; .8 ppm): 0%; MIC [3]: > 250 µg/mL; inhibition of growth at 1.5 ppm (PSH; 1.5 ppm): 100%; inhibition of growth at 6 ppm (PSH; 6 ppm): 100%; inhibition of growth at 25 ppm (PSH; 25 ppm): 100%; inhibition of growth at 0.2 ppm (PSH; .2 ppm): 0%; inhibition of growth at 0.4 ppm (PSH; .4 ppm): 100%; inhibition of growth at 0.8 ppm (PSH; .8 ppm): 100%; inhibition of growth at 1.5 ppm (MON; 1.5 ppm): 100%; inhibition of growth at 6 ppm (MON; 6 ppm): 100%; inhibition of growth at 25 ppm (MON; 25 ppm): 100%; inhibition of growth at 0.2 ppm (MON; .2 ppm): 100%; inhibition of growth at 0.4 ppm (MON; .4 ppm): 100%; inhibition of growth at 0.8 ppm (MON; .8 ppm): 100%; MIC (THREE FUNGI; Aspergillus niger, read-out: MIC ANIG): 12.5 µg/mL (≈ 33.9 µM); MIC (THREE FUNGI; Aureobasidium pullulans, read-out: MIC APUL): 50 µg/mL (≈ 135 µM); MIC (THREE FUNGI; Gloeophyllum trabeum, read-out: MIC GTRA): 6.2 µg/mL (≈ 16.8 µM)
